Each block holds one molecule with its values, some of them ahead of it. Where a SMILES comes first, the peptide text is derived from it. The star is where a group is joined. Octanoyl = CCCCCCCC(=O)*
Experiments:
[1] = biological target: T1, Angiotensin-converting enzyme (Homo sapiens, UniProt P12821); assay: Inhibition of Angiotensin I converting enzyme (ACE) in Bothrops jararaca venom
[2] = biological target: T1, Angiotensin-converting enzyme; assay: Inhibitory activity against Angiotensin I converting enzyme (ACE) in venom of Bothrops jararaca; type: tissue-based
[3] = The compound was evaluated for the inhibition of Glycolate oxidase
[4] = biological target: Growth hormone secretagogue receptor type 1 (Homo sapiens, UniProt Q92847); assay: Ability to displace [125I]ghrelin from cloned human Growth hormone secretagogue receptor type I (GSH1a) expressed in COS-7 cells; type: cell-based
[5] = biological target: T1, Angiotensin-converting enzyme; assay: The compound was evaluated for the (%) inhibition of Angiotensin I converting enzyme in venom of Bothrops jararaca at the dose of 10e-4 M; type: tissue-based
[6] = biological target: Somatostatin receptor type 1 (Homo sapiens, UniProt P30872); assay: Binding affinity towards Somatostatin receptor type 1 (hsst1)
[7] = biological target: Somatostatin receptor type 4 (Homo sapiens, UniProt P31391); assay: Binding affinity towards Somatostatin receptor type 4 (hsst4)
[8] = biological target: Somatostatin receptor type 5 (Homo sapiens, UniProt P35346); assay: Binding affinity towards Somatostatin receptor type 5 (hsst5)
[9] = biological target: Somatostatin receptor type 3 (Homo sapiens, UniProt P32745); assay: Binding affinity towards Somatostatin receptor type 3 (hsst3)
Somatostatin receptor type 3, sequence (P32745 whole entry): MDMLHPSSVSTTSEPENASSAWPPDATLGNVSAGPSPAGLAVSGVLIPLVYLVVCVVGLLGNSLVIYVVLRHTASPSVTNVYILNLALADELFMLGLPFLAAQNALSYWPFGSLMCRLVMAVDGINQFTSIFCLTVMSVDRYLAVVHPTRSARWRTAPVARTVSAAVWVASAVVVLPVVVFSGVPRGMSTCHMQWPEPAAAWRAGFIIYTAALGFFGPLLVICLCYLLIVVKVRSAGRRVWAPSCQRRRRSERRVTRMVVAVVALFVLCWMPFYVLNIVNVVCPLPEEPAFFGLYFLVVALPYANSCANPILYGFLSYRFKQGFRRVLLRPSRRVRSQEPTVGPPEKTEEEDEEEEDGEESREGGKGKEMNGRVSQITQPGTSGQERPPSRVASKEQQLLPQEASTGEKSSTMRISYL

T1 sequence (P12821 whole entry): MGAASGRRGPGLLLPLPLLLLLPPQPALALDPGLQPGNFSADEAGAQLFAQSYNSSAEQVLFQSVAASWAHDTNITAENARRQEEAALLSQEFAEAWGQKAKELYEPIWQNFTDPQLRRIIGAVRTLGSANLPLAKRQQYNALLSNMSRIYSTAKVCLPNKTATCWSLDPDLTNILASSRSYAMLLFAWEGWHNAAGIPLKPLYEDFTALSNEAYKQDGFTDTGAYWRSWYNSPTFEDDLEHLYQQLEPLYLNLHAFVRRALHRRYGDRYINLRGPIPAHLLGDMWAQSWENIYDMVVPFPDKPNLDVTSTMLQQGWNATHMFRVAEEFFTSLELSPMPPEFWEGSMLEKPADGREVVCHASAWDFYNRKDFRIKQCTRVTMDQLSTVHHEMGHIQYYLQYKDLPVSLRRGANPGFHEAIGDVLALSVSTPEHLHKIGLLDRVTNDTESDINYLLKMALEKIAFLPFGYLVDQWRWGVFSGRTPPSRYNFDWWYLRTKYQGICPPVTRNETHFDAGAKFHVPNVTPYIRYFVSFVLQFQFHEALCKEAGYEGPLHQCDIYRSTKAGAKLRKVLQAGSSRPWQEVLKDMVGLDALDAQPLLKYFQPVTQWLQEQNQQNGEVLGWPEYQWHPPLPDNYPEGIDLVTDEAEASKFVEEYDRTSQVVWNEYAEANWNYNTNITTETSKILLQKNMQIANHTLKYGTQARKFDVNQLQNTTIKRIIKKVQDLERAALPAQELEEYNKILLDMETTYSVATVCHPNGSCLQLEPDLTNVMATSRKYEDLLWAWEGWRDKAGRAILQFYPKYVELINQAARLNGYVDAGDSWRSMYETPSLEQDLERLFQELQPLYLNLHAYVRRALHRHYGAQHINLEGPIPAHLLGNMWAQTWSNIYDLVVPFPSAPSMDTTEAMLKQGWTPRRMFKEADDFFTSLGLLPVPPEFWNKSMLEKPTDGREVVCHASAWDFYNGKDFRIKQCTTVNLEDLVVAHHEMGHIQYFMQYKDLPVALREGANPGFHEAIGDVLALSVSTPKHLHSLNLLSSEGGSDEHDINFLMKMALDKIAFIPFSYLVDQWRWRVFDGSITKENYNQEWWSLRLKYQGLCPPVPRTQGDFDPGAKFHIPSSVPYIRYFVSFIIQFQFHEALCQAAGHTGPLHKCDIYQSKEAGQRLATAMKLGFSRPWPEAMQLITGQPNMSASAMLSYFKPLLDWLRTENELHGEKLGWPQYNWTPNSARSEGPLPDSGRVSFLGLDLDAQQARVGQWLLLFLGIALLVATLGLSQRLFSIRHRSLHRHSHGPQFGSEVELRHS
Somatostatin receptor type 5, sequence (P35346 whole entry): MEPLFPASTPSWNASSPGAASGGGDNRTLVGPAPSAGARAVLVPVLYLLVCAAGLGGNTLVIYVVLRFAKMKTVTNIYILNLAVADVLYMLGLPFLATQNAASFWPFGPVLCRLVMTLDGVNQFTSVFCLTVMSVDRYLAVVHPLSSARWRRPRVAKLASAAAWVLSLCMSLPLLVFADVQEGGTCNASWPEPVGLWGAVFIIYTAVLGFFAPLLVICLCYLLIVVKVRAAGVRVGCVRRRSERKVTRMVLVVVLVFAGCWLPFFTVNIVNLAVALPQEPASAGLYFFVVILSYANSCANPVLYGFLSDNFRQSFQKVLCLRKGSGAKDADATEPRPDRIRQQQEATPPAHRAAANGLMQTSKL
Somatostatin receptor type 1, sequence (P30872 whole entry): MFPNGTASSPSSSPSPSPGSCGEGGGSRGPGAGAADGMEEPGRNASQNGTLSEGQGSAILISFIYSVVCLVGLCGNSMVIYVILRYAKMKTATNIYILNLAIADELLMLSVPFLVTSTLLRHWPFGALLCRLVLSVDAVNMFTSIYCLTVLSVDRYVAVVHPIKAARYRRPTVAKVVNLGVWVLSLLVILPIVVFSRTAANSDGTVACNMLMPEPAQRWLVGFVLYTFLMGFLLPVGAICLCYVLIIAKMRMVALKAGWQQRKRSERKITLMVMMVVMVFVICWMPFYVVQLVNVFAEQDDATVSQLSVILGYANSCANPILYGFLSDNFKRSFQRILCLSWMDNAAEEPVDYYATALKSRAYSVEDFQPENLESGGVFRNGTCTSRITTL
Growth hormone secretagogue receptor type 1, sequence (Q92847 whole entry): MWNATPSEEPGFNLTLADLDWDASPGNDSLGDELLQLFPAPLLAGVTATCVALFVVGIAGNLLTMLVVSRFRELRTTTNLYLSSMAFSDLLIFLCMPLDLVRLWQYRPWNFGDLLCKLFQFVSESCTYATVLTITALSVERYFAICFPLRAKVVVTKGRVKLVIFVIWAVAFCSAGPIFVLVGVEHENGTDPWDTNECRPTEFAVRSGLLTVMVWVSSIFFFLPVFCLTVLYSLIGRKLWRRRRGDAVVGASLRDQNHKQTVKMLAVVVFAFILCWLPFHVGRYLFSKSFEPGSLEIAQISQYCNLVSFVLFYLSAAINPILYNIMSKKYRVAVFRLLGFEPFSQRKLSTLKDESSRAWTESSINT
Somatostatin receptor type 4, sequence (P31391 whole entry): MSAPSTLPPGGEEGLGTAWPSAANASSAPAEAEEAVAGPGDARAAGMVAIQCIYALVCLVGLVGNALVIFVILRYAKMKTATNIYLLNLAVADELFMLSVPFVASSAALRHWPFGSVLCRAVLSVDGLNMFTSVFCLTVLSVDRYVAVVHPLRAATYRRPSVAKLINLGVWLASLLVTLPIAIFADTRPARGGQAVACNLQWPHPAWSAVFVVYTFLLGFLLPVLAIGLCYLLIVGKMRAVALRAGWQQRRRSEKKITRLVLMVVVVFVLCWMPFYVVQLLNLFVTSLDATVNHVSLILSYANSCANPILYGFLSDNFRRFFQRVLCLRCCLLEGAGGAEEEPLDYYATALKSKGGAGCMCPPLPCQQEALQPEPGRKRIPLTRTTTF

Molecule: O=C(O)CCCC(=O)N1CCC[C@H]1C(=O)O
IC50 [1]: 70000 nM

Molecule: O=CC(Cc1ccccc1)NC(CCc1ccccc1)C(=O)O (stereo unspecified)
Ki [2]: 50000 nM

Molecule: H-EKWAP-OH
IC50 [1]: 60 nM

IC50 [3]: 60 nM
Molecule: O=C(O)/C(O)=C\C(=O)c1ccc(-c2ccc(Br)cc2)cc1

IC50 [4]: 0.71 nM
Molecule: CCCCCCCC(=O)OC[C@H](NC(=O)[C@H](CO)NC(=O)CN)C(=O)N[C@@H](Cc1ccccc1)C(=O)N[C@@H](CC(C)C)C(=O)N[C@@H](CO)C(=O)N1CCC[C@H]1C(=O)N[C@@H](CCC(=O)O)C(=O)N[C@@H](Cc1c[nH]cn1)C(=O)N[C@@H](CCC(N)=O)C(=O)N[C@@H](CCCN=C(N)N)C(=O)N[C@H](C(=O)N[C@@H](CCC(N)=O)C(=O)N[C@@H](CCC(N)=O)C(=O)N[C@@H](CCCN=C(N)N)C(=O)N[C@@H](CCCCN)C(=O)N[C@@H](CCC(=O)O)C(=O)N[C@@H](CO)C(=O)N[C@@H](CCCCN)C(=O)N[C@@H](CCCCN)C(=O)N1CCC[C@H]1C(=O)N1CCC[C@H]1C(=O)N1CCC[C@H]1C(=O)N[C@@H](C)C(=O)N[C@@H](CCCCN)C(=O)N[C@@H](CC(C)C)C(=O)N[C@@H](CCC(N)=O)C(=O)N1CCC[C@H]1C(=O)N[C@@H](CCCN=C(N)N)C(=O)O)C(C)C (H-GSS(Octanoyl)FLSPEHQRVQQRKESKKPPPAKLQPR-OH)

Molecule: O=C(O)CCC(=O)N1CCC[C@H]1C(=O)O
inhibition [5]: 43%

Molecule: CC(CCC(=O)N1CCC[C@H]1C(=O)O)C(=O)O (stereo partly specified)
IC50 [1]: 260000 nM

Ki [6]: 2390 nM | Ki [7]: 81 nM | Ki [8]: 163 nM | Ki [9]: 31 nM
Molecule: C[C@@H](c1c[nH]c2ccccc12)[C@@H](NC(=O)N1CCC(n2c(=O)[nH]c3ccccc32)CC1)C(=O)N[C@@H](CCCCN)C(=O)OC(C)(C)C
